From patent US20240114943A1, “TASTE-IMPROVING COMPOSITIONS AND USES THEREOF” (AMAI PROTEINS LTD., priority 2020, published 2024)

How the values were obtained:
[1] = Sensory expert panel time-intensity evaluation (sweetness intensity over time); format: in vivo, human
Method: The samples were evaluated by a panel of (˜15) prescreened, highly-sensitive, trained and calibrated expert tasters: The parameters quantified included Sweetness profile over time (Sweetness intensity with time after intake), Linger (Area under the sweetness intensity vs. time curve (AUC) from 60 to 150 or to 300 seconds), Linger time (Delta time from initial- to zero sweetness), Ratio of the Intensity at 60 seconds to the maximal intensity, Linger T50: Time to reach 50% of the maximal sweetness, Linger T10: Time to reach 10% of the maximal sweetness. The qualitative similarity of the taste to that of sugar was also evaluated, to describe attributes other than time-intensity profile.
Dilute citrate buffer was prepared in mineral water. […]
All micro-patched SP (MP-SP) were evaluated for sweetness intensity over time. The sensory panelists for the evaluation were screened for sensitivity for small differences in sweetness intensity and other basic tastes (saltiness, sourness, and bitterness), as well as sensory memory. These screening tests were performed according to ISO standards (IS 8586). The sensory expert panel was professionally trained and continuously assessed as to reproducibility and capability to differentiate between standard samples.
Sensory Method—Time Intensity (Measuring Sweetness Intensity Over Time): • 1. The products were tasted by an expert panel. • 2. Panelists were calibrated first with sugar solutions on a scale of 0-100 (magnitude estimation), while 0=not sweet at all. Calibration solutions used were 4% sucrose (defined as 50 sweetness) and 8% (defined as 100 sweetness grade). • 3. After calibration, the tasters preformed time-intensity evaluation for each sample according to the following stages: • a. After giving a signal, all tasters put the sample in their mouth, rolled it in their oral cavity for 2 seconds, and then swallowed. • b. After swallowing, the guide measured times, and at each time point, the taster was asked to grade the currently sensed sweetness intensity on the same scale (0-100) until the taste has disappeared. • c. The time periods examined were: 1, 2, 5, 7, 10, 15, 30, 45, 60, 90, 120, 150, 180, 210, 240, 270, and 300 seconds. • 4. Each panelist tasted a total of 6 products: SP standalone and four ratios of EGCG+SP tasted in varying orders. Sucrose solution (8Bx) was always tasted at the end. • 5. All the tested products were served using code numbers. • 6. Before and between samples, the tasters were requested to rinse their mouth with mineral water, eat an unsalted cracker and a cucumber, and drink water again. • 7. 11-15 tasters participated in these tests.

[2] = Meta-analysis of sensory panel meetings: four measures of lingering; format: in vivo, human; settings: summary of Example 4
Method: The meta-analysis was based on 44 sensory panel meetings and 55 MP agents. Statistical analysis was conducted. Four measures of lingering were defined: • AUC—the area under the time-intensity curve from 60 seconds to 300 seconds. • I60/max—the ratio between the intensity recorded at 60 seconds and the maximum intensity recorded. • T50—the time in seconds at which intensity recorded was 50% of the maximal intensity recorded • T10—the time in seconds at which intensity recorded was 10% of the maximal intensity recorded
Each graph refers to a single parameter. The graphs show means and standard errors for the MP agents that show significant improvement compared to the control (DM09 alone). The standard errors are calculated according to all the data in the Meta analysis (including data that are not shown in the graph).
The mean for the protein without MP agents is colored black.

## OC[C@H]1O[C@@](CO)(O[C@H]2O[C@H](CO)[C@@H](O)[C@H](O)[C@H]2O)[C@@H](O)[C@@H]1O [sucrose, reference compound]
[1]; in vivo
  Typical linger of sugar: ~60 s

## epigallocatechin-3-gallate [EGCG, reference compound]
[1]; EGCG with MNEI 0.08 mg/ml, 8 Bx, vs MNEI alone and sucrose, FIG. 1
  Sweetness profile over time (sweetness intensity): significantly improved the sweetness profile of SP
[2]
  Sweetness profile of DM09 (lingering effect): decreasing the lingering effect

## CC1(C)[C@@H](O[C@H]2O[C@H](C(=O)O)[C@@H](O)[C@H](O)[C@H]2O[C@@H]2O[C@H](C(=O)O)[C@@H](O)[C@H](O)[C@H]2O)CC[C@]2(C)[C@H]3C(=O)C=C4[C@@H]5C[C@@](C)(C(=O)O)CC[C@]5(C)CC[C@@]4(C)[C@]3(C)CC[C@@H]12.N [Mono Ammonium Glycyrrhizinate, monoammonium glycyrrhizinate, reference compound]
[1]; DM09 0.02 mg/ml, 8 Bx sugar equivalence level, vs DM09 alone
  Sweetness profile over time (sweetness-intensity-vs.-time curve, lingering effect): decreasing the lingering effect

B1: DM09: designer monellin, SEQ ID NO: 3; the sweet protein (SP) of Example 5 (protein)
chain: GNWEIIDIGPFTQNLGKFAVDEANKIGQYGRLTFNKVIRPCMKKTIYENEGFREIKGYEYQLYVRASDKLFRADISEDYKTRGRKLLRFNGPVPPP
[1]; DM09 0.02 mg/ml, 8 Bx sugar equivalence level, vs DM09 alone, P<0.05
  Linger time (Delta time (in sec) from initial to 0 sweetness intensity): significantly higher than the delta time of DM09:lactisole:tannic acid:ammonium Glycyrrhizinate
[1]; DM09 0.02 mg/ml, 8 Bx sugar equivalence level, vs DM09 alone, P<0.05, listed as DM09 only
  Linger time (Delta time (in sec) from initial to 0 sweetness intensity): significantly higher than the delta time of Quillija:DM09 (26:1)
[1]; sweet protein with gymnemic acids and/or maltodextrin, FIG. 15
  Linger (sweetness-intensity-vs.-time curve): longest linger time

B2: MNEI: single chain Monellin (MNEI) reference protein, SEQ ID NO: 28 (protein)
chain: GEWEIIDIGPFTQNLGKFAVDEENKIGQYGRLTFNKVIRPCMKKTIYENEGFREIKGYEYQLYVYASDKLFRADISEDYKTRGRKLLRFNGPVPPP
[1]; MNEI, 8 Bx, P<0.05, FIG. 2
  Linger (AUC of the sweetness-intensity vs. time, 60-150 seconds): significantly higher than the AUC of EGCG:MNEI (60:1)
